Data published in US20260234147A1 (priority 2023, published 2026).
Where two headings read alike, the source gives them in different places.

Experiments:
hKOR = hKOR (Homo sapiens, UniProt P41145); test: Radioligand binding assay (Eurofins Cerep), [3H]U69,593 displacement
hMOR = hMOR (Homo sapiens, UniProt P35372); test: Radioligand binding assay (Eurofins Cerep), [3H]DAMGO displacement
hDOR = hDOR (Homo sapiens, UniProt P41143); test: Radioligand binding assay (Eurofins Cerep), [3H]DADLE displacement
hDOR, sequence (P41143 whole entry): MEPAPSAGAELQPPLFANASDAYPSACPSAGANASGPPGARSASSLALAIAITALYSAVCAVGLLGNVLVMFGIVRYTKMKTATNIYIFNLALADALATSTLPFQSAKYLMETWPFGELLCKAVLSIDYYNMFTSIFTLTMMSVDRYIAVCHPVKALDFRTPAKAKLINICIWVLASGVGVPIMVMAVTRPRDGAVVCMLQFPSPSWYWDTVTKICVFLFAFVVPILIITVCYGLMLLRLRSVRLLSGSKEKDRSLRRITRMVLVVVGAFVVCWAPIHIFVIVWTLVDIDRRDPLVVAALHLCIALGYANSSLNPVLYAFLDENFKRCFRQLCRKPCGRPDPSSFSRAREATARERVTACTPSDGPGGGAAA

α2A adrenergic receptor = target: T1, α2A adrenergic receptor (Homo sapiens, UniProt P08913); test: Radioligand binding assay (Eurofins Cerep), [3H]RX 821002 displacement
T1 construct: Eurofins Cerep (contract screening)
T1 sequence (P08913 1-465): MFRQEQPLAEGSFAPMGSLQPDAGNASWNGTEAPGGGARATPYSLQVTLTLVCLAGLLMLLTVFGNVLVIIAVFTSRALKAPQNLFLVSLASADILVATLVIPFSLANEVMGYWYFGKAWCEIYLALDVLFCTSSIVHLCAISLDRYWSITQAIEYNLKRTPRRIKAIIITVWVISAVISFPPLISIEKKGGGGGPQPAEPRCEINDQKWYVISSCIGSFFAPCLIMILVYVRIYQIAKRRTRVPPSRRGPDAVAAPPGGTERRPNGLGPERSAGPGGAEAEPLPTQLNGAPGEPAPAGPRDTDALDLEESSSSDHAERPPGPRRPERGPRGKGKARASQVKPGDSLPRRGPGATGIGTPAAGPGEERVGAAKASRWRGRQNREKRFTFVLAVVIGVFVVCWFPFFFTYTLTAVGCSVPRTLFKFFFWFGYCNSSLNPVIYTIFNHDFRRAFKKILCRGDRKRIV

[1] = Table 3-5, 3 independent experiments, read-out: Ki (nM ± SEM) KOR
[2] = Table 3-5, 3 independent experiments, read-out: Ki (nM ± SEM) MOR
[3] = Table 3-5, 3 independent experiments, read-out: Ki (nM ± SEM) DOR
[4] = Table 3-5, 3 independent experiments, read-out: Ki (nM ± SEM) a2A-ar
[5] = Table 3-6, 3 independent experiments, read-out: Ki (nM ± SEM) KOR
[6] = Table 3-6, 3 independent experiments, read-out: Ki (nM ± SEM) MOR
[7] = Table 3-6, 3 independent experiments, read-out: Ki (nM ± SEM) DOR
[8] = Ki (nM ± SEM) DOR, Table 3-6, 3 independent experiments
[9] = Ki (nM ± SEM) a2A-AR, Table 3-6, 3 independent experiments
[10] = Table B2, mean ± SEM, 3 independent experiments, read-out: MOR Ki ± SEM
[11] = Alpha2A Ki ± SEM (nM), Table B2, mean ± SEM, 3 independent experiments
[12] = Table A4, data summary #2, read-out: KOR Ki ± SEM
[13] = Table A4, data summary #2, read-out: MOR Ki ± SEM
[14] = Table A4, data summary #2, read-out: DOR Ki ± SEM

hMOR, sequence (P35372 whole entry): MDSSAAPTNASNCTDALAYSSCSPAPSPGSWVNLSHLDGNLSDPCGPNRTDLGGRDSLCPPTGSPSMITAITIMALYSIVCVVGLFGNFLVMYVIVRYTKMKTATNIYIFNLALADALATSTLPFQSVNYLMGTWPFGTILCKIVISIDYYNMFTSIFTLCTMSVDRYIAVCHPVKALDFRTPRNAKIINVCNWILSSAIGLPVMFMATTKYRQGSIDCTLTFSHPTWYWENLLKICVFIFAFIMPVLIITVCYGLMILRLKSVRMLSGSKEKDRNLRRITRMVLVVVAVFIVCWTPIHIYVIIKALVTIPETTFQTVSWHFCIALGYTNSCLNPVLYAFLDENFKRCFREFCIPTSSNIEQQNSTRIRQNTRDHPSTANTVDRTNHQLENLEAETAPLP
hKOR, sequence (P41145 whole entry): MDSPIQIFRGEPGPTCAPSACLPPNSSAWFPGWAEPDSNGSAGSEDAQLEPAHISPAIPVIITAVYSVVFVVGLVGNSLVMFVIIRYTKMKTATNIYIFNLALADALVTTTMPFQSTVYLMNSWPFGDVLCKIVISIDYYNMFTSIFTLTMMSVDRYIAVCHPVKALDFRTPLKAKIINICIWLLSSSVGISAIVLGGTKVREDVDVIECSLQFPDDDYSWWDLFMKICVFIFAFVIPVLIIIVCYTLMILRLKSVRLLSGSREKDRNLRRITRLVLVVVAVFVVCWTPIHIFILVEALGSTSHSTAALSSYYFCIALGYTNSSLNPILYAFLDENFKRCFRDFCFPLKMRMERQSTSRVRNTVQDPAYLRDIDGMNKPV

Work on `COC=C(C(=O)OC)C1CCN(Cc2ccccc2)CC1` [Compound 3-50] yielded a Ki (hKOR; Table 3-4, 3 independent experiments, read-out: Ki (nM ± SEM) KOR) of 5700 ± 558 nM, a Ki (hMOR; Table 3-4, 3 independent experiments, read-out: Ki (nM ± SEM) MOR) greater than 10000 nM and a Ki (hDOR; Table 3-4, 3 independent experiments, read-out: Ki (nM ± SEM) DOR) greater than 10000 nM. It also gave a Ki (α2A adrenergic receptor; Ki (nM ± SEM) a2A-AR, Table 3-4, 3 independent experiments) greater than 10000 nM.
`COC=C(C(=O)OC)C1CCN(Cc2c[nH]c3ccccc23)CC1` [Compound 3-57] was tested, and the Ki (hKOR; [1]) was greater than 10000 nM, the Ki (hMOR; [2]) was greater than 10000 nM and the Ki (hDOR; [3]) was greater than 10000 nM. It also gave a Ki (α2A adrenergic receptor; Ki (nM ± SEM) a2A-ar, Table 3-5, 3 independent experiments) of 867 ± 370 nM.
In the case of `COC(=O)CC1CCN(Cc2c[nH]c3ccccc23)CC1` [Compound 3-58], the Ki (hKOR; [1]) is reported as 791 ± 216 nM, the “SR: Selectivity Ratio (KiMOR/Kiα2A)” value (hMOR; Table 3-5) is reported as 0.78 and the Ki (hMOR; [2]) is reported as 2700 ± 580 nM. It also gave a Ki (hDOR; [3]) greater than 10000 nM and a Ki (α2A adrenergic receptor; [4]) of 3460 ± 428 nM.
Work on `COC(=O)CC1CCN(CC(=O)c2c[nH]c3cccc(OC)c23)CC1` [Compound 3-63] yielded a Ki (hKOR; [1]) greater than 10000 nM, a Ki (hMOR; [2]) greater than 10000 nM and a Ki (hDOR; [3]) greater than 10000 nM. It also gave a Ki (α2A adrenergic receptor; [4]) of 6370 ± 1160 nM.
For `COC(=O)CN1CCN(CCc2c[nH]c3cccc(OC)c23)CC1` [Compound 3-65], the Ki (hKOR; [5]) was greater than 10000 nM, the Ki (hMOR; [6]) was greater than 10000 nM and the Ki (hDOR; [7]) was greater than 10000 nM. The Ki (α2A adrenergic receptor; Table 3-6, 3 independent experiments, read-out: Ki (nM ± SEM) a2A-AR) was 265 ± 64.3 nM.
`COC(=O)CN1CCN(CCc2c[nH]c3ccccc23)CC1` [Compound 3-66] was tested, and the Ki (hKOR; [5]) was greater than 10000 nM, the “SR: Selectivity Ratio (KiMOR/Kiα2A)” value (hMOR; Table 3-6) was 0.21 and the Ki (hMOR; [6]) was 2030 ± 694 nM. For the same molecule, the Ki (hDOR; [8]) was greater than 10000 nM and the Ki (α2A adrenergic receptor; [9]) was 9760 ± 4830 nM.
With `COC(=O)NC1CCN(CCc2c[nH]c3ccccc23)CC1` [Compound 3-68] the Ki (hKOR; [5]) was greater than 10000 nM, the “SR: Selectivity Ratio (KiMOR/Kiα2A)” value (hMOR; Table 3-6) was 0.37 and the Ki (hMOR; [6]) was 1890 ± 454 nM. It also gave a Ki (hDOR; [7]) greater than 10000 nM and a Ki (α2A adrenergic receptor; [9]) of 5090 ± 730 nM.
`COCC(C(=O)OC)C1CCN(CCc2c[nH]c3ccccc23)CC1` (centres unmarked) [Compound 3-71] was tested, and the Ki (hKOR; [5]) was greater than 10000 nM, the “SR: Selectivity Ratio (KiMOR/Kiα2A)” value (hMOR; Table 3-6) was 2.02 and the Ki (hMOR; [6]) was 5580 ± 1700 nM. It also gave a Ki (hDOR; [8]) greater than 10000 nM and a Ki (α2A adrenergic receptor; [9]) of 2760 ± 281 nM.
In the case of `COC(=O)CC1CCN2CCC(O)(c3ccccc3)CC2C1` (centres unmarked) [SG-01-049], the Ki (hMOR; [10]) is reported as 9810 ± 2860 nM and the Ki (α2A adrenergic receptor; [11]) is reported as 80 ± 19 nM.
Work on `COC(=O)C=C1CCN2CCC(O)(c3ccccc3)CC2C1` (centres unmarked) [SG-01-053] yielded a Ki (hMOR; [10]) greater than 10000 nM and a Ki (α2A adrenergic receptor; [11]) of 95 ± 35 nM.
`CC[C@@H]1CN2CCc3c([nH]c4cccc(OC)c34)[C@@H]2C[C@@H]1/C(=C\OC)C(=O)n1cccc1` [SUSM-526] showed a Ki (hKOR; Table A1, data summary #1, read-out: KOR Ki ± SEM) of 5800 ± 1390 nM, a Ki (hKOR; [12]) greater than 10000 nM and a Ki (hKOR; read-out: Ki at hKOR) of 57900 nM. The Ki (hMOR; Table A1, data summary #1, read-out: MOR Ki ± SEM) was 2160 ± 941 nM, the Ki (hMOR; [13]) was 719 ± 414 nM and the Ki (hMOR; read-out: Ki at hMOR / opioid binding (converted)) was 21600 nM. The Ki (hDOR; [14]) was greater than 10000 nM and the Ki (α2A adrenergic receptor; Table A4, data summary #2, read-out: Alpha2A Ki ± SEM) was greater than 10000 nM.
Molecule `CC[C@@H]1CN2CCc3c([nH]c4cccc(OC)c34)[C@@H]2C[C@@H]1/C(=C\OC)C(=O)N1CCOCC1` [SUSM-527, (E)-2-((2S,3S,12bS)-3-ethyl-8-methoxy-1,2,3,4,6,7,12,12b-octahydroindolo[2,3-a]quinolizin-2-yl)-3-methoxy-1-morpholinoprop-2-en-1-one] has a Ki (hMOR; [13]) of 1660 ± 427 nM and a Ki (hDOR; [14]) greater than 10000 nM.
In the case of `CC[C@@H]1CN2CCc3c([nH]c4cccc(OC)c34)[C@@H]2C[C@@H]1/C(=C\OC)C(=O)NCc1ccccc1` [SUSM-560], the Ki (hMOR; [13]) is reported as 5320 ± 800 nM and the Ki (hDOR; [14]) is reported as greater than 10000 nM.
`CC[C@@H]1CN2CCc3c([nH]c4cccc(OC)c34)[C@@H]2C[C@@H]1/C(=C\OC)C(=O)N1CCNCC1` [SUSM-562, (E)-2-((2S,3S,12bS)-3-ethyl-8-methoxy-1,2,3,4,6,7,12,12b-octahydroindolo[2,3-a]quinolizin-2-yl)-3-methoxy-1-(piperazin-1-yl)prop-2-en-1-one] gave a Ki (hMOR; [13]) of 4210 ± 558 nM and a Ki (hDOR) greater than 10000 nM.
For `CC[C@@H]1CN2CCc3c([nH]c4cccc(OC)c34)[C@@H]2C[C@@H]1/C(=C\OC)C(=O)N(C)Cc1ccccc1` [SUSM-563, (E)-N-benzyl-2-((2S,3S,12bS)-3-ethyl-8-methoxy-1,2,3,4,6,7,12,12b-octahydroindolo[2,3-a]quinolizin-2-yl)-3-methoxy-N-methylacrylamide], the Ki (hMOR; [13]) was 5750 ± 770 nM and the Ki (hDOR; [14]) was 4520 ± 1990 nM.
Work on `CC[C@@H]1CN2CCc3c([nH]c4cccc(OC)c34)[C@@H]2C[C@@H]1/C(=C\OC)C(=O)N1CCSCC1` [SUSM-564] yielded a Ki (hMOR; [13]) of 134 ± 32 nM and a Ki (hDOR; [14]) greater than 10000 nM.
`[2H]C([2H])([2H])N(C(=O)/C(=C/OC)[C@H]1C[C@H]2c3[nH]c4cccc(OC)c4c3CCN2C[C@H]1CC)C([2H])([2H])[2H]` [SUSM-566] was tested, and the Ki (hKOR; [12]) was 1800 ± 251 nM, the Ki (hMOR; [13]) was 330 ± 28 nM and the Ki (hDOR; DOR Ki ± SEM (nM), Table A4, data summary #2) was 8300 ± 3300 nM. For the same molecule, the Ki (α2A adrenergic receptor; Alpha2A Ki ± SEM (nM), Table A4, data summary #2) was 1960 ± 535 nM.
